Results taken from article PMC6199744, “Development of Chemical Proteomics for the Folateome and Analysis of the Kinetoplastid Folateome” (ACS Infectious Diseases, 2018).
Read-outs that look alike come from different tables or passages of the source.

Columns and labels:
Format in all cases: binding
[1] = target: T1, HeLa cell extract proteins (Homo sapiens, UniProt O15111); conditions: HeLa; protein CHUK
T1 construct: endogenous in cells; host or cells: HeLa cell extract
T1 sequence (O15111 1-745): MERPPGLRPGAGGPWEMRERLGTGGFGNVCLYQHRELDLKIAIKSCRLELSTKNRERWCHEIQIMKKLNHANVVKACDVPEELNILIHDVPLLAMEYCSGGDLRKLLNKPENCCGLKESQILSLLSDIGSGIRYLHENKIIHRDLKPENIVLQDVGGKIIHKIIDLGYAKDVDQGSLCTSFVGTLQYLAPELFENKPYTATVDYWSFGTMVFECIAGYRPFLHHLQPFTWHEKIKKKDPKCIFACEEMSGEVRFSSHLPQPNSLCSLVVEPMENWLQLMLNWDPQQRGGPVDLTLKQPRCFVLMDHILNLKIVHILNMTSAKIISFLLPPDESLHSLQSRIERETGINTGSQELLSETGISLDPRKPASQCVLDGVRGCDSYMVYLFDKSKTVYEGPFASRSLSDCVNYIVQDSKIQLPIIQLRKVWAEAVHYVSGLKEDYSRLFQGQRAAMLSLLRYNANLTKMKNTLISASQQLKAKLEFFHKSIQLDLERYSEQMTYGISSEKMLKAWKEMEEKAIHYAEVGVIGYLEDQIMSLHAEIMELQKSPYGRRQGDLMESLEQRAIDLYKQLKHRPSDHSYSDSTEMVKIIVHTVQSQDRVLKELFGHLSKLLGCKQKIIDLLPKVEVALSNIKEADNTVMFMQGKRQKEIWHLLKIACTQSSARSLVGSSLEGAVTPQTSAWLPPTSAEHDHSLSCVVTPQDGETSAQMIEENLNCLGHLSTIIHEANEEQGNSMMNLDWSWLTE

[2] = target: T2, HeLa cell extract proteins (Homo sapiens, UniProt P46782); conditions: protein RPS5; HeLa
T2 construct: endogenous in cells; host or cells: HeLa cell extract

[3] = target: T3, HeLa cell extract proteins (Homo sapiens, UniProt P49257); conditions: protein LMAN1; HeLa
T3 construct: endogenous in cells; host or cells: HeLa cell extract
T3 sequence (P49257 31-510): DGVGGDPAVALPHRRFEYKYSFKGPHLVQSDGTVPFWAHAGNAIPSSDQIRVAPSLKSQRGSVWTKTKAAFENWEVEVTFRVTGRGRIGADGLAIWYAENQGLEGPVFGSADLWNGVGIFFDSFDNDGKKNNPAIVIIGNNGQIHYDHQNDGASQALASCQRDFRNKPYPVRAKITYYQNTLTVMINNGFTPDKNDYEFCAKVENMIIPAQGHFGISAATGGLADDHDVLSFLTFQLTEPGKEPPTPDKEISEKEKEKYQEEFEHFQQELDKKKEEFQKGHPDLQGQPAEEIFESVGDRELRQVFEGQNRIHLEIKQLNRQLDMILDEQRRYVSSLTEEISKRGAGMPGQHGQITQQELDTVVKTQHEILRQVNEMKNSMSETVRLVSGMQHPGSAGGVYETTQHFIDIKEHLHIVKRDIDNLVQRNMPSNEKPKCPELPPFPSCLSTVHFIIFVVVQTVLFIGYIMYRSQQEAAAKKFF

[4] = target: T4, HeLa cell extract proteins (Homo sapiens, UniProt P60953); conditions: protein CDC42; HeLa
T4 construct: endogenous in cells; host or cells: HeLa cell extract

[5] = target: T5, HeLa cell extract proteins (Homo sapiens, UniProt Q08945); conditions: protein SSRP1; HeLa
T5 construct: endogenous in cells; host or cells: HeLa cell extract

[6] = target: T6, HeLa cell extract proteins (Homo sapiens, UniProt Q9BSJ2); conditions: captured protein TUBGCP2; HeLa
T6 construct: endogenous in cells; host or cells: HeLa cell extract

[7] = target: T7, HeLa cell extract proteins (Homo sapiens, UniProt Q13535)
T7 construct: endogenous in cells; host or cells: HeLa cell extract

[8] = target: T8, HeLa cell extract proteins (Homo sapiens, UniProt Q8IWA4)
T8 construct: endogenous in cells; host or cells: HeLa cell extract
T8 sequence (Q8IWA4 1-741): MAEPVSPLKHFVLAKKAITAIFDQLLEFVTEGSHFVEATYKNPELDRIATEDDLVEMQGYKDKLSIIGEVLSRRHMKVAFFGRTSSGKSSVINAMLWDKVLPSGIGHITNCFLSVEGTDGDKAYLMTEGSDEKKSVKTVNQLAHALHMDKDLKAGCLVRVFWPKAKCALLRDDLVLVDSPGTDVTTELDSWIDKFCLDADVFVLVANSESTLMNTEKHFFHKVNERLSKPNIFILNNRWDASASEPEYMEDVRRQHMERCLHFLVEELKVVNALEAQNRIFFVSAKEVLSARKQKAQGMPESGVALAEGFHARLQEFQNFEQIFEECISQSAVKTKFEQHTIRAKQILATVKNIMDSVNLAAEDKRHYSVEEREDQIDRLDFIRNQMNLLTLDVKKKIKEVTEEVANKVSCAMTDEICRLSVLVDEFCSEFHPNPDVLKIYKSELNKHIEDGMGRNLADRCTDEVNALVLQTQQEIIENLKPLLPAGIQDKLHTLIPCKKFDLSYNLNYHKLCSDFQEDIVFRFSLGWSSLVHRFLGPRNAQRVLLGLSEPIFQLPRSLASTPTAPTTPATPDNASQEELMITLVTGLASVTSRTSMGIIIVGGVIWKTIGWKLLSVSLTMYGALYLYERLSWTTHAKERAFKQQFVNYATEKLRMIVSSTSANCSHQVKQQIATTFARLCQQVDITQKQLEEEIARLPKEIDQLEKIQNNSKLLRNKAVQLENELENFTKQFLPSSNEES

[9] = target: T9, HeLa cell extract proteins (Homo sapiens, UniProt Q9NYP7)
T9 construct: endogenous in cells; host or cells: HeLa cell extract
T9 sequence (Q9NYP7 1-299): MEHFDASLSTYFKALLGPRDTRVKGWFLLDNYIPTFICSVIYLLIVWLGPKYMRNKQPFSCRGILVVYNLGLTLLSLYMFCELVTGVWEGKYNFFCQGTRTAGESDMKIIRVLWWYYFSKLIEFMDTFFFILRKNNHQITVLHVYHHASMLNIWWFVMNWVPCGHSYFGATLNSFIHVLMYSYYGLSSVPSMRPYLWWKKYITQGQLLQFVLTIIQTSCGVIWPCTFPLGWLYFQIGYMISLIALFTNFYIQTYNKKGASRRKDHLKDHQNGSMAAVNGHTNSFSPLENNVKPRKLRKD

T4 sequence (P60953 whole entry): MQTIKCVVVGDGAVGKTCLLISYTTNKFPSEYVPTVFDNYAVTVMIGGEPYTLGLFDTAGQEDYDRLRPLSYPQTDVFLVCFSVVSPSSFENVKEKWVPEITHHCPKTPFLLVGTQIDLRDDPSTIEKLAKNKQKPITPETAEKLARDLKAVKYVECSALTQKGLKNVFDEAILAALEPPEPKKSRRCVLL
T6 sequence (Q9BSJ2 whole entry): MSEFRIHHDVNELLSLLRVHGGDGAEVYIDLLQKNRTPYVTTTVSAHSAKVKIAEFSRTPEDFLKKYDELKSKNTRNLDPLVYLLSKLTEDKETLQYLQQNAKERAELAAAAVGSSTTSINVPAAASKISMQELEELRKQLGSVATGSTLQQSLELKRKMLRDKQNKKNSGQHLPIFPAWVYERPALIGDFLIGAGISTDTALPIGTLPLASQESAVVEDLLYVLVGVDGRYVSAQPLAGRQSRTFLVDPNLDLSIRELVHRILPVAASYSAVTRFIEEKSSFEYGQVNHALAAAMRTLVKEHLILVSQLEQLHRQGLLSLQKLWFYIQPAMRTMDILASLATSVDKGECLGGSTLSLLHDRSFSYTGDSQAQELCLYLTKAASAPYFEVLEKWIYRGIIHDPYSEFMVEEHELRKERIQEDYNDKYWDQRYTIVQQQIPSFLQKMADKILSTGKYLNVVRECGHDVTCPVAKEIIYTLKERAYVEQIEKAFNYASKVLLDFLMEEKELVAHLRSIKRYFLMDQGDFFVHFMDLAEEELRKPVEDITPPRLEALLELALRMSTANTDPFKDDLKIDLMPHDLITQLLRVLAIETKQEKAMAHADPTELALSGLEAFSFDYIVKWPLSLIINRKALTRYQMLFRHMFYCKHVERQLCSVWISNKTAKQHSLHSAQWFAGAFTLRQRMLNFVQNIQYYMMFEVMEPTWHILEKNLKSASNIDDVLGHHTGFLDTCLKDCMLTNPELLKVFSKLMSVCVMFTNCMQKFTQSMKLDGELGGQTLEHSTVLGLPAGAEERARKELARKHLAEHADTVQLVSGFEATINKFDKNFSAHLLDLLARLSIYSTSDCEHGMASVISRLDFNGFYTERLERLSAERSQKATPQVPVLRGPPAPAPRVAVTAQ
T7 sequence (Q13535 whole entry): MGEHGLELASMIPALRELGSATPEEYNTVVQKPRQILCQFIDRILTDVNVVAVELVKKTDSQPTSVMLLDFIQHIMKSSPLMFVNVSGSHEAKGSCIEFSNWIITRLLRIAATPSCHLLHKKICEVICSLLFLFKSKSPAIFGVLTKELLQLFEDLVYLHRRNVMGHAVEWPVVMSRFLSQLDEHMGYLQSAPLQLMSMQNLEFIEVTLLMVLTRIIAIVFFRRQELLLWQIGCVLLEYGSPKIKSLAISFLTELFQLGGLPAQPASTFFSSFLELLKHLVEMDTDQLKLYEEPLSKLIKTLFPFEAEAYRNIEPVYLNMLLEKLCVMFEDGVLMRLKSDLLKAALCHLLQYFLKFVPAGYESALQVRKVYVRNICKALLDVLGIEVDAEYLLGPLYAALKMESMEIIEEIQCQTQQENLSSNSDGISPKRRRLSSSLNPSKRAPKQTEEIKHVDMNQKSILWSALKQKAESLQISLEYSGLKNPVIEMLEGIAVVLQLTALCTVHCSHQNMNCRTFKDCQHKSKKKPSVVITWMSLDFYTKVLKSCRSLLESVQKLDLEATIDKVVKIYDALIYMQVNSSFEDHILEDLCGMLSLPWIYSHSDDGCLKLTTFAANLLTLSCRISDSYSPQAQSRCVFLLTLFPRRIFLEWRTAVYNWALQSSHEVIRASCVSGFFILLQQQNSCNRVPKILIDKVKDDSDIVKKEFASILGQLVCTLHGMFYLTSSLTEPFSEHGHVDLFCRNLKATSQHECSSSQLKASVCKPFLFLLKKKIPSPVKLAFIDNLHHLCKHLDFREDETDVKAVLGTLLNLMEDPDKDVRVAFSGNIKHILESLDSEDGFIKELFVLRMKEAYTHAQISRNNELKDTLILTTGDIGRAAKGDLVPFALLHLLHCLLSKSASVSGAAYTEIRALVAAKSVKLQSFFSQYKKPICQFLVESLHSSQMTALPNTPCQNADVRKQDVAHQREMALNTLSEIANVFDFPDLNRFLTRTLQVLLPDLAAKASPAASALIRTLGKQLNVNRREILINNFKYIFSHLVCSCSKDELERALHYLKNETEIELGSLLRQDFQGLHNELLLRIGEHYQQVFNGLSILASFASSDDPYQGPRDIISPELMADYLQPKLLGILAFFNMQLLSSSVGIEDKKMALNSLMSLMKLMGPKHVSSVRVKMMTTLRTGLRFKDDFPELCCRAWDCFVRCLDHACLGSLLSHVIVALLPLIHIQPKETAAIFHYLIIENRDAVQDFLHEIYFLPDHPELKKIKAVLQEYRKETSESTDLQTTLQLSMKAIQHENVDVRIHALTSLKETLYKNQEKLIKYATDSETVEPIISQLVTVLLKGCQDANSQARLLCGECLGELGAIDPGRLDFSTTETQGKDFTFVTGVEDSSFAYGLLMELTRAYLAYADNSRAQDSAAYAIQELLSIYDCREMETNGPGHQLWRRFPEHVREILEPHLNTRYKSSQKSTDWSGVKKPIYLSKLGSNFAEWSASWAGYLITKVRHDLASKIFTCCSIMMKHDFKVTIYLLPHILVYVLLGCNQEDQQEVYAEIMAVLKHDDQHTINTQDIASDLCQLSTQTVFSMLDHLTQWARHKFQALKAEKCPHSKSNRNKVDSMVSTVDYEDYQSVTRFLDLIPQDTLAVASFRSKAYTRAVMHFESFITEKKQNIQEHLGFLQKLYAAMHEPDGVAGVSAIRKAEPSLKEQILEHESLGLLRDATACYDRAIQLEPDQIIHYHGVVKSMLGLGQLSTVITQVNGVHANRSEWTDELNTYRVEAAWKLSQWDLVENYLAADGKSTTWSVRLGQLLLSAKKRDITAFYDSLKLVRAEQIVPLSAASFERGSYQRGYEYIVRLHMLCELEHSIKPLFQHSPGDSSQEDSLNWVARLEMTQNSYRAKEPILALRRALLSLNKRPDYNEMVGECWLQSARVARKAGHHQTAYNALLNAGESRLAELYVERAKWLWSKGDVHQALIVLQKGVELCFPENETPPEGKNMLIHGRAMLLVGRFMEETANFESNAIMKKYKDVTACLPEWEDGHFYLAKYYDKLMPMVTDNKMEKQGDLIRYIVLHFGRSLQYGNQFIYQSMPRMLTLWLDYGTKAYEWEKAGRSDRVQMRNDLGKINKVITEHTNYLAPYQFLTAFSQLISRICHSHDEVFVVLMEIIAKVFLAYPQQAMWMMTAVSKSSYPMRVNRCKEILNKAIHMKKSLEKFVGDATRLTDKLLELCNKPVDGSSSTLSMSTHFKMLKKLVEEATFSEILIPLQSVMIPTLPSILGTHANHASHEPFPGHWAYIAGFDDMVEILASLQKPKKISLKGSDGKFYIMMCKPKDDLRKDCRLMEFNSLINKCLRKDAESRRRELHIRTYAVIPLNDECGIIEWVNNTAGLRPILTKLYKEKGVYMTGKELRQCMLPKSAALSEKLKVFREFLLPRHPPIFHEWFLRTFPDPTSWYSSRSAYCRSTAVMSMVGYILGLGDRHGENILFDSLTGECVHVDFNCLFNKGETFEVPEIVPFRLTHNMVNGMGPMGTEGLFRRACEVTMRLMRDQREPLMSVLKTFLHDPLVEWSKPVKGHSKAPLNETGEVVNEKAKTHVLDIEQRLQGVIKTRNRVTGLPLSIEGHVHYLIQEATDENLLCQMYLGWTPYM
T5 sequence (Q08945 whole entry): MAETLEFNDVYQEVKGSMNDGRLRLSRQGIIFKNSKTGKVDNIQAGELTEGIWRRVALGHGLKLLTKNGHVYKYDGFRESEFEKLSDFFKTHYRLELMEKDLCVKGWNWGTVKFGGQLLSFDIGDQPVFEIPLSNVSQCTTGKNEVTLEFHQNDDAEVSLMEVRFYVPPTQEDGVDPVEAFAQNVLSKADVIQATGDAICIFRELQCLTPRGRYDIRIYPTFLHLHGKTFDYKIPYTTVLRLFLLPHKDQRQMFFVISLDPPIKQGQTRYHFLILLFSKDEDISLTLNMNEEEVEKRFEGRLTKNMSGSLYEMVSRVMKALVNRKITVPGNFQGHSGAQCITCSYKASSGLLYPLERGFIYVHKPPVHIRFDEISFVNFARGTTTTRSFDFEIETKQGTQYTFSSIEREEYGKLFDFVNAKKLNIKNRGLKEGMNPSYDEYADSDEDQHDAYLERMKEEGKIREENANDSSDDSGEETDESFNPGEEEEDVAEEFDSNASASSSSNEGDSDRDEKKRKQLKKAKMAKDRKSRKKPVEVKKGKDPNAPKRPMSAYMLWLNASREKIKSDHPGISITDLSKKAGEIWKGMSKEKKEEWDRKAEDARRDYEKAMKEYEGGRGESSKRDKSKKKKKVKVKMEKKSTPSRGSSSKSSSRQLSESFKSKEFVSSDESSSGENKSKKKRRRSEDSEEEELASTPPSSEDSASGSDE

Compound | fold changes relative to vehicle control [1] | fold changes relative to vehicle control [2] | fold changes relative to vehicle control [3] | fold changes relative to vehicle control [4] | fold changes relative to vehicle control [5] | fold changes relative to vehicle control [6] | fold changes relative to vehicle control [7] | fold changes relative to vehicle control [8] | fold changes relative to vehicle control [9] | fold changes relative to vehicle control ([7]; protein ATR, HeLa) | fold changes relative to vehicle control ([8]; protein MFN1, HeLa) | fold changes relative to vehicle control ([9]; HeLa, protein ELOVL5)
Nc1nc2cccc(-c3ccccc3)c2n1Cc1ccc(Cl)c(Cl)c1 [compound 3] | 0.9 | 1.01 | 0.87 | 0.99 | 0.95 | 0.99 | – | – | – | – | – | –
Nc1nc2[nH]cc(CCc3ccc(C(=O)N[C@@H](CCC(=O)O)C(=O)O)cc3)c2c(=O)[nH]1 [PTX, pemetrexed] | – | – | – | – | – | – | 0.79 | 0.89 | 0.9 | – | – | –
Nc1nc2c(c(=O)[nH]1)N(C=O)C(CNc1ccc(C(=O)N[C@@H](CCC(=O)O)C(=O)O)cc1)CN2 (stereo partly drawn) [LEU, leucovorin] | – | – | – | – | – | – | – | – | – | 0.66 | 0.81 | 0.95
CCCCCCOc1cccc(Cc2cnc(N)nc2N)c1 [compound 2] | 1.04 | 1.1 | 1.57 | 1.45 | 1.44 | 1.01 | – | – | – | – | – | –
NCCOCCOCC(=O)Nc1nc2ncc(CNc3ccc(C(=O)NC(CCC(=O)O)C(=O)O)cc3)nc2c(=O)[nH]1 (stereo not drawn) [compound 6] | – | – | – | – | – | – | – | – | – | 0.69 | 0.99 | 0.98
CCCCCCOc1ccc(Cc2cnc(N)nc2N)cc1 [compound 1] | 0.98 | 1.04 | 1.17 | 1.11 | 0.93 | 0.76 | – | – | – | – | – | –
NCCCNc1ccc(C(=O)NC(CCC(=O)O)C(=O)O)cc1 (stereo not drawn) [compound 7] | – | – | – | – | – | – | – | – | – | 0.54 | 1.02 | 1.02
